Data published in patent US8653278B2, “Isoform selective HDAC inhibitors” (Georgetown University, priority 2006, dated 2014).
“Also recorded” adds a separate entry of the source. Read-outs that look alike come from different tables or passages of the source.

Key:
[1] = system: human normal primary skin fibroblasts (Hs-68); experiment: growth inhibition of normal cells Hs-68; assay type: cell-based; settings: Hs68
Experimental: (§1) One of characteristics of the HDAC inhibitors relates to their ability to inhibit the growth of transformed cells. The compounds capable of modifying histones in the cell were tested for their biological effects.

[2] = system: human normal fibroblasts (NHP-5); experiment: growth inhibition of normal cells NHP-5; assay type: cell-based; settings: Fibroblast
Experimental: as §1

HDAC [3] = system: T1, HDAC; experiment: in vitro HDAC inhibitory activity, HDAC Fluor-Lys as substrate (BIOMOL); assay type: biochemical; settings: for IC50: read-out: IC50, concentration required to achieve 50% inhibition of HDAC activity
T1 construct: other: HDAC Fluor-Lys substrate; other: at concentrations of 1 μM
Experimental: The in vitro HDAC inhibitory activity of the synthesized compounds was determined by using HDAC Fluor-Lys as the substrate (BIOMOL). […] SAHA was used as a positive control.

[4] = system: prostate cancer (PC-3), breast cancer (MCF-7), cervical cancer (HeLa), squamous carcinoma (SQ-20B); experiment: antiproliferative activity in cancer cell lines; assay type: cell-based; settings: PC-3, MCF-7, HeLa
Experimental: as §1

[5] = system: mouse model of Huntington's disease; settings: cited from earlier work
Plasmodium falciparum = settings: human malaria parasite Plasmodium falciparum; cited from earlier work
HDAC2 = target: T2, HDAC2 (Homo sapiens, UniProt Q92769); experiment: class I HDAC isoform activity, immunoprecipitate from HeLa nuclear extracts; assay type: biochemical; settings: 0.5 μM of the test compound
T2 construct: endogenous in cells; host or cells: HeLa nuclear extract, immunoprecipitate
Source text: (§2) FIG. 10 depicts the effect of HDAC inhibitors, including selected compounds of the invention, on Class I HDAC isoform activities. Note that (a) denotes that HeLa nuclear extracts were used for immunoprecipitation (IP) with antibodies against HDAC 1-3; and (b) denotes that recombinant protein was used for HDAC 8. Note: TSA is trichostatin A.
(§3) To test whether the modified CAP region of the HDACIs is able to target specific HDAC isoform enzyme activity, the compounds were examined for class I HDAC isoform inhibitory activities using recombinant HDAC8 and immunoprecipitates of the other HDAC isoforms (HDAC 1, 2, 3) using nuclear extracts from HeLa cells. […] The data shown in FIG. 10 represent the HDAC inhibitory activity remaining after addition of 0.5 μM of the test compounds.

HDAC3 = target: T3, HDAC3 (Homo sapiens, UniProt O15379); experiment: as above; assay type: biochemical; settings: after addition of 0.5 μM of the test compound
T3 construct: endogenous in cells; host or cells: HeLa nuclear extract, immunoprecipitate
Source text: as §2, §3

HDAC1 = target: T4, HDAC1 (Homo sapiens, UniProt Q13547); experiment: as above; assay type: biochemical; settings: 0.5 μM of the test compound
T4 construct: endogenous in cells; host or cells: HeLa nuclear extract, immunoprecipitate
Source text: as §2, §3

HDAC8 = target: T5, HDAC8 (Homo sapiens, UniProt Q9BY41); experiment: class I HDAC isoform activity, recombinant protein; assay type: biochemical; settings: after addition of 0.5 μM of the test compound
T5 sequence (Q9BY41 1-377): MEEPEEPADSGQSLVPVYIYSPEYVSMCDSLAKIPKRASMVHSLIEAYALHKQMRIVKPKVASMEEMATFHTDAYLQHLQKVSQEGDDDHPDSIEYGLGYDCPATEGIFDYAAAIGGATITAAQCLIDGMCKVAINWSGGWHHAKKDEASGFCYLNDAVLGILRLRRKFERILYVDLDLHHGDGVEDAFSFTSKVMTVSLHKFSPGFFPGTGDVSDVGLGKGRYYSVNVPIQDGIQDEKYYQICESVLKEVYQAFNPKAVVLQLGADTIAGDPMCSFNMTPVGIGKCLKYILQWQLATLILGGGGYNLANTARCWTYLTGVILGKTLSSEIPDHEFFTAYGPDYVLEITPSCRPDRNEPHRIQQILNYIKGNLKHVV
Source text: as §2, §3

HDAC 1, 2, 3 and HDAC8 = experiment: class I HDAC isoform panel, comparison across isoforms; assay type: biochemical; settings: 0.5 μM of the test compound; HDAC 1, 2, 3, 8
Source text: as §2, with “8.” for “8. Note: TSA is trichostatin A.”

HDAC [6] = settings: read-out: reported IC50; literature value; cited from earlier work

T3 sequence (O15379 whole entry): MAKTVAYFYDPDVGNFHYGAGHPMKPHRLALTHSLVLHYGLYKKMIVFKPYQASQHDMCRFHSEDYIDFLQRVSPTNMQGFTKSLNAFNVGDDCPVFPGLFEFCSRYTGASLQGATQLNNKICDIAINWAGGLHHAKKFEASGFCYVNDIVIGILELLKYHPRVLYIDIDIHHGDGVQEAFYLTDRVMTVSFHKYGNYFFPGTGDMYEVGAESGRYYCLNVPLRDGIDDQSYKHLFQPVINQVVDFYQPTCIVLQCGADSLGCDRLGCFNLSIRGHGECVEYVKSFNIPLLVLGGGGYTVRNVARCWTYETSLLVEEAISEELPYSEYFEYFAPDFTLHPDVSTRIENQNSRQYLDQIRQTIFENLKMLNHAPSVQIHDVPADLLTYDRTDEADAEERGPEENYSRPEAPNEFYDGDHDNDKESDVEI
T3 sequence (Q9Y618 whole entry partner): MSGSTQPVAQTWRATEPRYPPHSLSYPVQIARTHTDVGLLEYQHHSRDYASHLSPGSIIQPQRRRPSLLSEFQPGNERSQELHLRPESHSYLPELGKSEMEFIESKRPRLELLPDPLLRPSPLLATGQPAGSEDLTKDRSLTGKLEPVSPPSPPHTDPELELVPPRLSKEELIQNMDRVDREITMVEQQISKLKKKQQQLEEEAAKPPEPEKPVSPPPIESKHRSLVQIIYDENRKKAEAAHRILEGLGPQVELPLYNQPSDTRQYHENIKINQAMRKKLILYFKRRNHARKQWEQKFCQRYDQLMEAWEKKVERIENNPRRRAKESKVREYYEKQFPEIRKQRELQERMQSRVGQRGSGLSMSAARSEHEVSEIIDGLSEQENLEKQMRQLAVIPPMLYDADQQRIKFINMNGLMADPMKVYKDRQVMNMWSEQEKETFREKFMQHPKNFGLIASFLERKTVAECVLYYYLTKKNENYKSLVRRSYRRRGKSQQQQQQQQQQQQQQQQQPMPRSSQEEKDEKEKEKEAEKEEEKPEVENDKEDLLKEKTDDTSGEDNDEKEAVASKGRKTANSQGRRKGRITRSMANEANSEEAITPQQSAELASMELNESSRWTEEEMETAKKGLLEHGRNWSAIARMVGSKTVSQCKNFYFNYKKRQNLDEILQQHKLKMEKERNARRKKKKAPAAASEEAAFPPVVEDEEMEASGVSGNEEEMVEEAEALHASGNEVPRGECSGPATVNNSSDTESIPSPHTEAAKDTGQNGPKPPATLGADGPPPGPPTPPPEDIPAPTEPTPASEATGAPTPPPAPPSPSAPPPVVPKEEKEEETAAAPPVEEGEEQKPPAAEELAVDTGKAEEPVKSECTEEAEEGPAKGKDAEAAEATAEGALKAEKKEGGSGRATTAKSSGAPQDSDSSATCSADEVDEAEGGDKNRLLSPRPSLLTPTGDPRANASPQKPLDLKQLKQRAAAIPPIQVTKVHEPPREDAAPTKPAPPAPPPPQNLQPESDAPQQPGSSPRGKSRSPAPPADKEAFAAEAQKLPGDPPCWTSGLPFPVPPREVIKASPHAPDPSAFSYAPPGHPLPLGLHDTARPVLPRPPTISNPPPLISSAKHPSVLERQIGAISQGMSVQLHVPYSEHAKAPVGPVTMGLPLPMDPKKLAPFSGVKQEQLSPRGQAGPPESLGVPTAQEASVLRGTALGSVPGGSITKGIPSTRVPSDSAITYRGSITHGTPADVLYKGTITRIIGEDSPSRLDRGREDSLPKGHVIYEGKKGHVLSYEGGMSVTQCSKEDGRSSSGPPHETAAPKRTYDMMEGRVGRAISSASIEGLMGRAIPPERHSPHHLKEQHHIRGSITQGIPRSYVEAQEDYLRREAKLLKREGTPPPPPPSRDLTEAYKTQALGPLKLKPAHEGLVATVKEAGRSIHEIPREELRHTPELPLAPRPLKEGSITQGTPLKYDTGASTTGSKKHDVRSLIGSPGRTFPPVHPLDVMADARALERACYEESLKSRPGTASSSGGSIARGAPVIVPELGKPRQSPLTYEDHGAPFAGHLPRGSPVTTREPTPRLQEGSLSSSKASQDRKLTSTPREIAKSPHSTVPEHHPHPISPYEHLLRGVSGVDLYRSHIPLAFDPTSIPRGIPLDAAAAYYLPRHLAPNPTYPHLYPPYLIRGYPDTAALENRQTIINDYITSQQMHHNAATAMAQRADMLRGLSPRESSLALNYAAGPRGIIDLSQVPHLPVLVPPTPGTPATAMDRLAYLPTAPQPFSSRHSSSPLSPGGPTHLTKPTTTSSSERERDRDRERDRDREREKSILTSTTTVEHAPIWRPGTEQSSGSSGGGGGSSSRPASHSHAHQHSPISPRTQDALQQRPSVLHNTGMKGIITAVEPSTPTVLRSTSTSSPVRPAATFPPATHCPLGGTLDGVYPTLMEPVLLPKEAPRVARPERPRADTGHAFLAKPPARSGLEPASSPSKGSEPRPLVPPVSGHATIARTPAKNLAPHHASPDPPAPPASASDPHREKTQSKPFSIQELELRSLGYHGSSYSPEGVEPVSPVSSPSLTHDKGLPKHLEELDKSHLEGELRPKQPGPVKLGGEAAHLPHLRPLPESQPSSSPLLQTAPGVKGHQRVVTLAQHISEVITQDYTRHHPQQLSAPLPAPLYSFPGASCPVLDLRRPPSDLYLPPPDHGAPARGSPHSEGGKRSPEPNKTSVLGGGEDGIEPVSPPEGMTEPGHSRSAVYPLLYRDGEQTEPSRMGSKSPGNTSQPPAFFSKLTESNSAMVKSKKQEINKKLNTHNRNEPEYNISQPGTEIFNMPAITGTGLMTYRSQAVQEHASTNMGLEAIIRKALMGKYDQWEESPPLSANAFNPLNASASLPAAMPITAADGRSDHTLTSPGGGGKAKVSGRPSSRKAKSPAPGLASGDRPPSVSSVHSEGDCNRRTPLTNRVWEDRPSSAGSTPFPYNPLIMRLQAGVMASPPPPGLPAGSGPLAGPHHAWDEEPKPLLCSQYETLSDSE
T2 sequence (Q92769 whole entry, canonical isoform): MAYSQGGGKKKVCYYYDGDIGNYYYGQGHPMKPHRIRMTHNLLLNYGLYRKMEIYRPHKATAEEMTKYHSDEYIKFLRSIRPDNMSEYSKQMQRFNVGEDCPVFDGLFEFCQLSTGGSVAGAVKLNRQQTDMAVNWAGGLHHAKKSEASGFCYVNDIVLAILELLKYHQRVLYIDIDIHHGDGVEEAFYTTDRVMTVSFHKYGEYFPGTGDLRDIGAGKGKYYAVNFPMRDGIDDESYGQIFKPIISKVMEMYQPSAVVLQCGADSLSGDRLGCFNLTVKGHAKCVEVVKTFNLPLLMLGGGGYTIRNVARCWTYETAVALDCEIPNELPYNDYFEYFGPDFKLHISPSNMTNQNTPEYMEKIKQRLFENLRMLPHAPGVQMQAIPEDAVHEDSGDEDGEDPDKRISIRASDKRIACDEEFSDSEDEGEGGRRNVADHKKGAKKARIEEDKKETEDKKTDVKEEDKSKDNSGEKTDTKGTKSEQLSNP
T4 sequence (Q13547 whole entry): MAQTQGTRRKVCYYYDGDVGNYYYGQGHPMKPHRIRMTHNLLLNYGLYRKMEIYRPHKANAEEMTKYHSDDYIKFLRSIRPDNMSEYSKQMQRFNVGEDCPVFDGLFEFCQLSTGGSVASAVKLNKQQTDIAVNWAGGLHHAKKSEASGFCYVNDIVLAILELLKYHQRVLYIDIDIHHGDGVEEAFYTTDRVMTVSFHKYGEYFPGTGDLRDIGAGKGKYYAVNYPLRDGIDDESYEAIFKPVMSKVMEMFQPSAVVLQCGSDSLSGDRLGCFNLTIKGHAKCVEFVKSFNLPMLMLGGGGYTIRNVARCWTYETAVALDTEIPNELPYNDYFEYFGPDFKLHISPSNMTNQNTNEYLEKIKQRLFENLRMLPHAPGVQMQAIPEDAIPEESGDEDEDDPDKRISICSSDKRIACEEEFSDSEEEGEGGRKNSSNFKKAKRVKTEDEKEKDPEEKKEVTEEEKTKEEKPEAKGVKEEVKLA

NCC(=O)Nc1ccccc1-c1ccc(NC(=O)CCCCCCC(=O)NO)cc1 [7a, octanedioic acid [2′-(2-amino-acetylamino)-biphenyl-4-yl]-amide hydroxyamide]
IC50 [1]: > 500000 nM
IC50 [2]: > 500000 nM
IC50 (HDAC [3]; HDAC Fluor-Lys substrate): 200 nM

NC(Cc1ccccc1)C(=O)Nc1ccccc1-c1ccc(NC(=O)CCCCCCC(=O)NO)cc1 (stereo not drawn) [7b, octanedioic acid [2′-(2-amino-3-phenyl-propionylamino)-biphenyl-4-yl]-amide hydroxyamide]
IC50 [1]: > 300000 nM
IC50 [2]: 80000 nM
HDAC inhibitory activity (in words) (HDAC [3]): approximately equipotent in their activity to SAHA
antiproliferative / growth inhibitory activity (in words) [4]: good growth inhibitory activity

O=C(CCCCCCC(=O)Nc1ccc(-c2ccccc2NC(=O)C2CCCN2)cc1)NO (stereo not drawn) [7c, octanedioic acid hydroxyamide {2′-[(pyrrolidine-2-carbonyl)-amino]-biphenyl-4-yl}-amide]
HDAC inhibitory activity (in words) (HDAC [3]; HDAC Fluor-Lys substrate): approximately equipotent in their activity to SAHA

NC(Cc1c[nH]c2ccccc12)C(=O)Nc1ccccc1-c1ccc(NC(=O)CCCCCCC(=O)NO)cc1 (stereo not drawn) [7d, octanedioic acid {2′-[2-amino-3-(1H-indol-3-yl)-propionylamino]-biphenyl-4-yl}-amide hydroxyamide]
IC50 [2]: 100000 nM
IC50 (HDAC [3]): 30 nM

NC(Cc1ccc(O)cc1)C(=O)Nc1ccccc1-c1ccc(NC(=O)CCCCCCC(=O)NO)cc1 (stereo not drawn) [7e, octanedioic acid {2′-[2-amino-3-(4-hydroxy-phenyl)-propionylamino]-biphenyl-4-yl}-amide hydroxyamide]
IC50 (HDAC [3]; HDAC Fluor-Lys substrate): 50 nM

NCC(=O)Nc1ccccc1-c1ccc(NC(=O)CCCCCNC(=O)CS)cc1 [10a, 6-(2-mercapto-acetylamino)-hexanoic acid [2′-(2-amino-acetylamino)-biphenyl-4-yl]-amide]
IC50 (HDAC [3]): 7000 nM

NC(Cc1ccccc1)C(=O)Nc1ccccc1-c1ccc(NC(=O)CCCCCNC(=O)CS)cc1 (stereo not drawn) [10b, 6-(2-Mercapto-acetylamino)-hexanoic acid [2′-(2-amino-3-phenyl-propionylamino)-biphenyl-4-yl]-amide]
IC50 (HDAC [3]): 3000 nM

NC(Cc1c[nH]c2ccccc12)C(=O)Nc1ccccc1-c1ccc(NC(=O)CCCCCNC(=O)CS)cc1 (stereo not drawn) [10d, 6-(2-mercapto-acetylamino)-hexanoic acid {2′-[2-amino-3-(1H-indol-3-yl)-propionylamino]-biphenyl-4-yl}-amide]
HDAC inhibitory activity at a fixed concentration (in words) (HDAC [3]): inactive

NC(Cc1ccc(O)cc1)C(=O)Nc1ccccc1-c1ccc(NC(=O)CCCCCNC(=O)CS)cc1 (stereo not drawn) [10e, 6-(2-mercapto-acetylamino)-hexanoic acid {2′-[2-amino-3-(4-hydroxy-phenyl)-propionylamino]-biphenyl-4-yl}-amide]
HDAC inhibitory activity at a fixed concentration (in words) (HDAC [3]; at concentrations of 1 μM): inactive

O=C(CCCCCCC(=O)Nc1ccccc1)NO [SAHA, suberoylanilide hydroxamic acid]
motor impairment ([5]; mouse model of Huntington's disease): improve dramatically the motor impairment
brain penetration ([5]; mouse, in vivo): penetrate into the brain

COc1ccc(CCN(C)CCCC(C#N)(c2ccc(OC)c(OC)c2)C(C)C)cc1OC (stereo not drawn) [Verapamil]
reversal of chloroquine resistance (Plasmodium falciparum): reverse chloroquine resistance

Nc1ccccc1-c1csc(NC(=O)CCCCCCC(=O)NO)n1 [compound 16, octanedioic acid hydroxyamide [4-(2-amino-phenyl)-thiazol-2-yl]-amide]
HDAC inhibitory activity (in words) (HDAC [3]; HDAC Fluor-Lys substrate): poorly active

O=C(CCCCCCC(=O)Nc1nc(-c2ccccc2[N+](=O)[O-])cs1)NO [compound 17, octanedioic acid hydroxyamide [4-(2-nitro-phenyl)-thiazol-2-yl]-amide]
IC50 (HDAC [3]; HDAC Fluor-Lys substrate): 50 nM

O=C(CCCCCCC(=O)Nc1nc(-c2cccc([N+](=O)[O-])c2)cs1)NO [compound 19, octanedioic acid hydroxyamide [4-(3-Nitro-phenyl)-thiazol-2-yl]-amide]
inhibition of HDAC2 activity (in words) (HDAC2): strong tendency to inhibit
remaining activity at 0.5 µM (HDAC3): > 30%
inhibition of HDAC1 activity (in words) (HDAC1): strong tendency to inhibit
antiproliferative / growth inhibitory activity (in words) [4]: submicromolar activity
remaining activity at 0.5 µM (HDAC8): > 30%

CCOC(=O)Nc1cccc(-c2csc(NC(=O)CCCCCCC(=O)NO)n2)c1 [compound 22, {3-[2-(7-hydroxycarbamoyl-heptanoylamino)-thiazol-4-yl]-phenyl}-carbamic acid ethyl ester]
IC50 (HDAC [3]; HDAC Fluor-Lys substrate): 5 nM
potency relative to trichostatin A (HDAC [3]; IC50 compared with reported IC50 of trichostatin A): approximately two-fold
antiproliferative / growth inhibitory activity (in words) [4]: submicromolar activity; also recorded: impressive antiproliferative activity

Nc1cccc(-c2csc(NC(=O)CCCCCCC(=O)NO)n2)c1 [compound 23, octanedioic acid hydroxyamide [4-(3-amino-phenyl)-thiazol-2-yl]-amide]
IC50 (HDAC [3]; HDAC Fluor-Lys substrate): 8 nM
inhibition of HDAC2 activity (in words) (HDAC2): strong tendency to inhibit
remaining activity at 0.5 µM (HDAC3): > 30%
inhibition of HDAC1 activity (in words) (HDAC1): strong tendency to inhibit
antiproliferative / growth inhibitory activity (in words) [4]: submicromolar activity
remaining activity at 0.5 µM (HDAC8): > 30%

trichostatin A
class I HDAC isoform inhibitory activity and selectivity (in words) (HDAC 1, 2, 3 and HDAC8): more effective for inhibiting HDACs 1 and 2
IC50 (HDAC [6]): 12 nM
